From patent US20240251807A1, “SYSTEMS AND METHODS FOR DISPERSING ACTIVE INGREDIENTS” (Hazel Technologies, Inc., priority 2021, published 2024)

Tests used:
Assay type in all cases: physicochemical
[1] = 1-MCP release rate as a function of air speed; conditions: five air speeds and 0 m/s, 0.5 kg activated carbon powder, sealed room of approximately 30,000 cubic feet
Description: This example describes the release rate of an active ingredient from a delivery material as a function of gaseous fluid flow rate through the delivery material. Specifically, the rate of gaseous 1-MCP release via pump-driven air flow was measured as a function of the air flow rate.
In a sealed apple storage room of approximately 30,000 cubic feet, 0.5 kg of a particulate delivery material in the form of activated carbon powder associated with an activated ingredient in the form of 1-MCP was held in front of pumps in the form of fans with known air speeds for greater than 2 hours each. The fan type and geometry was varied to access various air speeds. The concentration of 1-MCP in the atmosphere of the sealed apple storage room was monitored using measurements from a detector making use of the C2H4 sensor described in Example 1, and release rates were calculated at five different air speeds, as well as at a flow rate of 0 m/s.

[2] = 1-MCP release with pump vs without pump in sealed apple storage room; conditions: box fan on vs off, first 240 minutes, 0.5 kg activated carbon bed, sealed room 2-6° C.
Description: This example describes the effect of directing gaseous fluid flow through a delivery material on the rate of release of active ingredients. Specifically, gaseous 1-MCP release via pump-driven gas flow was compared to release in the absence of pump-driven flow.
(§1) A pump in the form of a 20″×20″ box fan was placed inside of a 33,264 cubic foot apple storage room kept at a temperature between 2-6° C., with the fan facing up and elevated several inches from the ground to allow space for air to enter the fan from below. The device was assembled by placing a metal air filter housing and a 20″×20″ air filter (Nordic Pure® Part 20201.8-3) on top of the fan, to which was added a 0.5 kg bed of a particulate delivery material in the form of activated carbon powder associated with an activated ingredient in the form of 1-MCP. Another identical 20″×20″ air filter was placed on top of the 1-MCP-loaded activated carbon and secured with a clamp. The apple storage room was vacated by the user and sealed before the fan was turned on. At the same time, in an adjacent, identical apple storage room, a second, identical device described above was set up with a 0.5 kg bed of activated carbon powder associated with 1-MCP. However, the fan of this second device was not turned on.

[3] = 1-MCP buildup and retention in sealed vs unsealed apple storage room, box fan device; conditions: 2-6° C., after 15 hours of running the fan, 0.5 kg activated carbon bed
Description: This example describes release of an active ingredient into an enclosure using a device and system as described in this disclosure. Specifically, gaseous 1-MCP buildup and retention in an enclosure in the form of a sealed apple room was compared to buildup and retention in an unsealed apple storage room.
as §1, with “an activate” for “an activated”, “on. […] The C2H4 sensor was calibrated for 1-MCP by comparison with gas chromatography readings, and reported values in millivolts which were subtracted from baseline readings for” for “on. At”, “the detector and then converted via” for “the same time, in an adjacent, identical apple storage room, a second, identical device described above was set up with a 0.5 kg bed of activated carbon powder associated with 1-MCP. However,”, “the calibration curve to concentration measurements. […]” for “the fan of this second device was not turned on.”

[4] = 1-MCP release, dry forced-air (duct fan) vs water-based release in sealed apple storage room; conditions: sealed room 2-6° C.
Description: This example describes a comparison of active ingredient release profiles and rates using a device and system of this disclosure as compared to an existing technique. Specifically, gaseous 1-MCP release via pump-driven gaseous fluid flow was compared to water-based release of 1-MCP.
A pump in the form of a duct fan was placed inside of a 30,624 cubic foot apple storage room kept between 2-6° C. The fan was placed facing up onto two iron bars to allow space for air to enter below the fan. The device was assembled by placing a 12″ mesh sieve on top of the duct fan, to which was added a 1 kg bed of a particulate delivery material in the form of activated carbon powder associated with an activated ingredient in the form of 1-MCP. The sieve and delivery material was then contained by placing a pair of nylon stockings over the opening of the sieve and sealing it all with duct tape. The room was vacated by the user and sealed before the fan was turned on. […] At the same time, a comparative experiment was performed by placing, in an adjacent identical apple storage room, a bucket containing 12 L of distilled water and 4 aerators (each of which produced 0.024 cubic feet per min, 0.096 cubic feet per minute total). […] The 1-MCP levels in the sealed apple storage room for the second, comparative experiment was measured in the same manner as described above.

With `CC1=CC1` [1-MCP, 1-methylcyclopropene] the “1-MCP release rate as a function of air speed” value [1] was “greater rate when faster air speeds were used”, the “1-MCP release with pump compared to no pump” value [2] was “released at a greater rate and in greater amounts” and the “measured 1-MCP level in room” value ([3]; sealed apple storage room) was “greater 1-MCP level”. For the same compound, the “measured 1-MCP level in room” value ([3]; unsealed apple storage room (portal door open)) was “significant level of 1-MCP”, the “duration of sustained release” value ([4]; dry forced-air release method, duct fan) was over 170 min and the “increase in rate of release, dry forced-air release vs water-based release” value ([4]; initial slope of concentration profiles, 1 kg activated carbon bed) was 16 fold.
